Experimental findings from EP0410366A2, “Anthracycline derivatives” (BEHRINGWERKE Aktiengesellschaft, priority 1989, dated 1991) are described below.

Converted amounts (≈) assume the structure as drawn. Where two headings read alike, the source gives them in different places.

Series [1] has as its system L 1210 Leukämiezellen. The series is described as follows: Cytotoxicity against L 1210 leukemia cells (stem cell assay, SCA; colony formation in soft agar). The conditions noted are these: Mus musculus. Format: cell-based, Maus. The procedure: Der Test wurde entsprechend der von Hamburger und Salmon beschriebenen Methodik mit den unten beschriebenen Modifikationen durchgeführt.
Konditioniertes Medium wurde durch McCoy 5A Medium ersetzt. Als Folge der hohen Klonierungsrate der L 1210 Leukämiezellen in Soft Agar wurde die Anzahl an Tumorzellen pro Platte auf 5 x 10² reduziert.
Die Zellen wurden mit unterschiedlichen Konzentrationen der Testsubstanz für 1 h bei 37° C inkubiert. Anschließend wurden die Zellen zweimal mit McCoy 5A Medium gewaschen und anschließend in einem Zwei-Schichten-Agar System als obere Schicht entsprechend der Methode von Hamburger und Salmon ausplatiert.
Zusätzliche Parallelexperimente wurden unter Verwendung einer kontinuierlichen Inkubationszeit durchgeführt, wobei unterschiedliche Konzentrationen der Testsubstanz der oberen Agarschicht vor Ausplatieren der Zellen zugemischt wurden.
Die Platten wurden in einem Brutschrank mit 5 % CO₂, 20 % 02 und 95 % relativer Luftfeuchte für 5-7 Tage inkubiert. Nach dieser Zeit wurden Kolonien mit einem Durchmesser von 60 µm mit Hilfe eines Invertoskopes gezählt.
Die Ergebnisse wurden angegeben als prozentualer Anteil der Kolonien in behandelten versus unbehandelten Gruppen. Der Variationskoeffizient bei wiederholten Experimenten war kleiner als 15 %.
Aus der Dosis-Wirkungskurve wurde die IC₅₀ für die kontinuierliche und einstündige Inkubation bestimmt (Tab. 1).

Series [2] has as its system L 1210. As to the kind of experiment: Proliferation test (MTT reduction), L 1210. The note with it: Mus musculus, read-out: IC₅₀ MTT L1210. Format: cell-based, Maus. The procedure: (§1) L 1210, A 549 oder HT 29 in exponentieller Wachstumsphase werden in einer Zelldichte von 5 x 10³ Zellen/ml in RPMI 1640 in einer 96 Well Mikrotiterplatte für 72 h mit unterschiedlichen Konzentrationen der Testsubstanz bei 37° C, 5 % CO₂ und 95 % relativer Luftfeuchte inkubiert. Kontrollexperimente erhalten anstelle der Testsubstanz lediglich Wachstumsmedium. Für jede Testsubstanz sowie für die Kontrolle werden 4fach Bestimmungen angesetzt. Nach 65 h Inkubation werden 50 µl einer MTT-Lösung (2.5 mg/ml in Phosphat-gepuffertem Kochsalz) zugegeben. In Gegenwart lebender Zellen wird MTT zu einem dunkelroten unlöslichen Formazanfarbstoff reduziert. Diese Reaktion ist nach 7 h (L 1210 Zellen) bzw. nach 24 h (A 549, HT 29 Zellen) beendet, und das überstehende Medium wird sorgfältig abgesaugt. Der unlösliche Farbstoff wird durch Zugabe von 100 µl DMSO aufgelöst und die Extinktion der so entstehenden Lösung anschließend für jedes Well in einem Multiscan Photometer 340 CC der Fa. Flow bei einer Wellenlänge von 492 nm vermessen.
(§2) Aus dem Verhältnis der Extinktionen behandelter und unbehandelter Zellen ergibt sich eine Dosis-Wirkungskurve, aus der die Konzentration, die gerade 50 % der Zellen (IC₅₀) abtötet, abgelesen werden kann. Für wiederholte Untersuchungen beträgt der Variationskoeffizient weniger als 15 % (Tabelle 1). Tabelle 1

Series [3] deals with A 549. The series is described as follows: Proliferation test (MTT reduction), A 549. The conditions noted are these: Homo sapiens, read-out: IC₅₀ MTT A 549. Format: cell-based. The procedure: as §1, §2
Series [4] deals with HT 29. As to the kind of experiment: Proliferation test (MTT reduction), HT 29. The conditions noted are these: Homo sapiens, read-out: IC₅₀ MTT HT 29. Format: cell-based. The procedure:
as §1, §2

The subject of series [5] is L 1210 Leukämie. Format: in vivo. The conditions noted are these: for opt. Dosis: dose with the largest antitumoral effect. The protocol: Methodik: Ascitesflüssigkeit wird unter sterilen Bedingungen DBA2 Mäusen (weiblich, 18-20 g) 7 Tage nach Implantation entnommen. Der Ascites wird dreimal mit PBS gewaschen, gezählt und auf eine Zellzahl von 10⁴ in 0.2 ml PBS eingestellt.
10⁴ Zellen, suspendiert in 0.2 ml PBS, werden anschließend DBF1 Mäusen (weiblich, 18-20 g) intravenös injiziert. 6 Tiere pro Gruppe werden für jede Substanzkonzentration bzw. als Kontrolle eingesetzt.
• a) Die Tiere werden am Tag 1 und 5 nach Injektion der Testsubstanz gewogen. Gewichtsverlust von mehr als 20 % am Tag 5 wird als Indikator einer toxischen Substanzwirkung angesehen. • b) Am Ende des Experimentes (Tod aller Tiere oder überlebende Tiere am Tag 60) wird die mittlere Überlebenszeit der Tiere in den jeweiligen Gruppen bestimmt, sofern am Tag 5 des Experimentes mindestens 65 % der Tiere noch gelebt hatten. Die mittlere Überlebenszeit wird ausschließlich für im Verlaufe des Experimentes sterbende Tiere bestimmt. Langzeit-überlebende (LTS) werden bei dieser Berechnung nicht berücksichtigt und gesondert aufgeführt.
Aus der mittleren Überlebenszeit (MSTt) der behandelten Gruppen sowie der Kontrollgruppen (MSTc) wird die antitumorale Wirksamkeit (T/C) für die jeweilige Substanzkonzentration in Prozent der unbehandelten Kontrolle entsprechend der folgenden Formel bestimmt: [formula]
T/C Werte größer als 125 % werden als Indikator einer signifikanten antitumoralen Wirksamkeit der Testsubstanz angesehen. Die Dosis, die den größten antitumoralen Effekt (optimale Dosierung) zeigte, wurde ermittelt. Tiere, die am Tag 60 des Experimentes noch leben, werden als Longterm-Survivors getrennt aufgeführt. Tabelle 2

[6] abbreviates: L 1210 iv, treatment iv, Q3D (Verbind. 1: 2x, Pirarubicin: 3x).
[7] abbreviates: L1210, read-out: IC₅₀ SCA L 1210 1 h.

With `COc1cccc2c1C(=O)c1c(O)c3c(c(O)c1C2=O)C[C@@](O)(C(=O)CO)C[C@@H]3O[C@H]1C[C@H](N)[C@H](O[C@@H]2CCCCO2)[C@H](C)O1` [Pirarubicin, 4′-O-THP-Doxorubicin, reference compound], the IC50 in series [1] (L1210, 1 h incubation at 37° C, colonies counted after 5-7 days, read-out: IC₅₀ SCA L 1210 1 h) turned out to be 0.01 µg/mL (≈ 0.0159 µM); in series [1] (L1210, continuous incubation, colonies counted after 5-7 days, read-out: IC₅₀ SCA L 1210 cont), 0.004 µg/mL (≈ 0.00637 µM); in series [2] (L1210, 72 h incubation), 0.004 µg/mL (≈ 0.00637 µM); in series [3] (A549, 72 h incubation), 0.15 µg/mL (≈ 0.239 µM); in series [4] (HT-29, 72 h incubation) it was 0.016 µg/mL (≈ 0.0255 µM). The “opt. Dosis” value in series [5] (setting [6]) turned out to be 4.7 mg/kg/inj. For the same compound, in series [5] (iv), the “Effektivität T/C %” value is reported as 178%.

As for `COc1cc(OC)cc(C(C)(C)OC(=O)N[C@H]2C[C@H](O[C@H]3C[C@](O)(C(=O)CO)Cc4c(O)c5c(c(O)c43)C(=O)c3c(OC)cccc3C5=O)O[C@@H](C)[C@H]2OC2CCCCO2)c1` (stereo partly drawn) [Verbindung 1, 7-O-(3-(3 ,5′-Dimethoxy-α,α-dimethyl-benzyloxycarbonylamino)-4-O-tetrahydropyranyl-2,3,6-tridesoxy-alpha-L-lyxohexopyranosyl)-adriamycinon], the IC50 was determined as 5.3 µg/mL (≈ 6.24 µM) in series [1] (setting [7]); 0.027 µg/mL (≈ 0.0318 µM) in series [2] (L1210, 72 h); 0.023 µg/mL (≈ 0.0271 µM) in series [3] (A549, 72 h); 0.04 µg/mL (≈ 0.0471 µM) in series [4] (HT-29, 72 h). Moreover, the “zytostatische Wirksamkeit” value in series [5] ("in vivo" L 1210-Testmodell, compared with Doxorubicin or Tetrahydropyranyl-Doxorubicin) is listed as “erheblich bessere”. For the same compound, the Effektivität toxisch in series [5] (animals per group with toxic effect, at optimal dose) is reported as 1/6. Also, in series [5] (at optimal dose, mean survival time treated vs control, L 1210 iv, treatment iv, Q3D (Verbind. 1: 2x, Pirarubicin: 3x)), the “Effektivität T/C %” value is on record as 435%. In addition, in series [5] (setting [6]), the “opt. Dosis” value stood at 20 mg/kg/inj. Moreover, the “Effektivität LTS” value in series [5] (long-term survivors at day 60, animals per group, at optimal dose) is listed as 5/6.

Turning to `COc1cc(OC)cc(C(C)(C)OC(=O)N[C@H]2C[C@H](O[C@H]3C[C@](O)(C(=O)CO)Cc4c(O)c5c(c(O)c43)C(=O)c3c(OC)cccc3C5=O)O[C@@H](C)[C@H]2O)c1` [Verbindung 2, 7-O-(3-(3 ,5′-Dimethoxy-α,α-dimethyl-benzyloxycarbonylamino)-2,3,6-tridesoxy-alpha-L-lyxohexopyranosyl)-adriamycinon], the IC50 in series [1] (setting [7]) worked out at 6.4 µg/mL (≈ 8.36 µM); in series [2] (L1210, 72 h), 0.11 µg/mL (≈ 0.144 µM); in series [3] (A549, 72 h), 0.11 µg/mL (≈ 0.144 µM); in series [4] (HT-29, 72 h) it was 0.13 µg/mL (≈ 0.17 µM).

For the compound `COc1cc(OC)cc(C(C)(C)OC(=O)N[C@H]2C[C@H](O[C@H]3C[C@](O)(C(=O)CO)Cc4c(O)c5c(c(O)c43)C(=O)c3c(OC)cccc3C5=O)O[C@@H](C)[C@@H]2O)c1` [Verbindung 3, 7-O-(3-(3 ,5′-Dimethoxy-α,α-dimethyl-benzyloxycarbonylamino)-2,3,6-tridesoxy-alpha-L-arabinohexopyranosyl)-adriamycinon], the IC50 in series [2] (L1210, 72 h) turned out to be 0.02 µg/mL (≈ 0.0261 µM); in series [3] (A549, 72 h), 0.04 µg/mL (≈ 0.0522 µM); in series [4] (HT-29, 72 h) it was 0.11 µg/mL (≈ 0.144 µM).

As to `COc1cc(OC)cc(C(C)(C)OC(=O)N[C@H]2C[C@H](O[C@H]3C[C@](O)(C(C)=O)Cc4c(O)c5c(c(O)c43)C(=O)c3c(OC)cccc3C5=O)O[C@@H](C)[C@H]2O)c1` [Verbindung 4, 7-O-(3-(3 ,5′-Dimethoxy-α,α-dimethyl-benzyloxycarbonylamino)-2,3,6-tridesoxy-alpha-L-lyxohexopyranosyl)-daunomycinon], the IC50 was 4.5 µg/mL (≈ 6 µM) in series [1] (setting [7]); 0.14 µg/mL (≈ 0.187 µM) in series [2] (L1210, 72 h); 0.13 µg/mL (≈ 0.173 µM) in series [3] (A549, 72 h); 0.13 µg/mL (≈ 0.173 µM) in series [4] (HT-29, 72 h).

Regarding `CC[C@@]1(O)C[C@H](O[C@H]2C[C@H](NC(=O)OC(C)(C)c3cc(OC)cc(OC)c3)[C@H](O)[C@H](C)O2)c2c(O)c3c(c(O)c2[C@H]1O)C(=O)c1cccc(O)c1C3=O` [Verbindung 8, 7-O-(3-(3,5-Dimethoxy-alpha,alpha-dimethyl-benzyloxycarbonylamino)-2,3,6-tridesoxy-alpha-L-lyxohexopyranosyl)-β-rhodomycinon], the IC50 was 0.47 µg/mL (≈ 0.637 µM) in series [1] (setting [7]); 0.004 µg/mL (≈ 0.00542 µM) in series [2] (L1210, 72 h); less than 0.004 µg/mL in series [3] (A549, 72 h); less than 0.004 µg/mL in series [4] (HT-29, 72 h).
